# Reference: US7872014B2, “Anaplastic lymphoma kinase modulators and methods of use” (Exelixis, Inc., priority 2003, dated 2011)
# Biological target: T1, ALK (baculovirus expressed human ALK kinase domain F1098-K1410) (Homo sapiens, UniProt Q9UM73)
# T1 construct: baculovirus expressed human ALK kinase domain F1098-K1410; made in house
# Assay: Luciferase-Coupled Chemiluminescent Kinase assay (LCCA), ALK biochemical activity
# Details: inhibition of ALK; mean values; 1 μM ATP, 4 μM poly-AEKY, 12 nM ALK, 2 hours ambient temperature
# In short: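 Luciferase-coupled readout of ATP remaining after reaction of 12 nM ALK kinase domain with 1 μM ATP and 4 μM poly-AEKY, Tris-HCl pH 7.5 buffer with MgCl2 and MnCl2. Incubated 2 h at ambient temperature; inhibition derived from ATP consumption across serial compound dilutions.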
# T1 sequence (Q9UM73 1098-1410): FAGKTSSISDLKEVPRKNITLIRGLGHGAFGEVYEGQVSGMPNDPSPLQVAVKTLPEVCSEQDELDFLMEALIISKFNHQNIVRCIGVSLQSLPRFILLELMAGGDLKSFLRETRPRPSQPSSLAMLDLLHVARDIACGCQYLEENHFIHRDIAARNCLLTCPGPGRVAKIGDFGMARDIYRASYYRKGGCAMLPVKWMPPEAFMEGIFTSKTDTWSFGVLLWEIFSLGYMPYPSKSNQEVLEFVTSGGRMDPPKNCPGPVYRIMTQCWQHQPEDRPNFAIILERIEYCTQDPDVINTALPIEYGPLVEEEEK
row,IC50 [nM],SMILES
1,≤ 99,"COc1cc2c(cc1C)c(-c1ccc(O)cc1)nc1[nH]nc(C)c12 [Example 66, 4-[1,7-dimethyl-8-(methyloxy)-3H-pyrazolo[3,4-c]isoquinolin-5-yl]phenol]"
2,100 to 999,"COc1cc2c(-c3ccc(O)c(Cl)c3)nc3[nH]nc(C)c3c2cc1OCC(C)C [Example 134, 2-chloro-4-{1-methyl-7-(methyloxy)-8-[(2-methylpropyl)oxy]-3H-pyrazolo[3,4-c]isoquinolin-5-yl}phenol]"
3,≤ 99,"Cc1n[nH]c2nc(-c3cc(Cl)c(O)cc3F)c3c(F)c4c(cc3c12)OCCO4 [Example 150, 2-chloro-5-fluoro-4-(6-fluoro-1-methyl-8,9-dihydro-3H-[1,4]dioxino[2,3-g]pyrazolo[3,4-c]isoquinolin-5-yl)phenol]"
4,≤ 99,"COc1cc2c(c(-c3ccc(O)cc3)nc3[nH]nc(C)c32)c(Br)c1C [Example 92, 4-[6-bromo-1,7-dimethyl-8-(methyloxy)-3H-pyrazolo[3,4-c]isoquinolin-5-yl]phenol]"
5,≤ 99,"CCN1CCC(COc2cc(F)c3c(-c4ccc(O)c(Cl)c4)nc4[nH]nc(C)c4c3c2OC)CC1 [Example 210, 2-chloro-4-[8-{[(1-ethylpiperidin-4-yl)methyl]oxy}-6-fluoro-1-methyl-9-(methyloxy)-3H-pyrazolo[3,4-c]isoquinolin-5-yl]phenol]"
6,≤ 99,"COCCOc1cc(F)c2c(-c3ccc(O)cc3)nc3[nH]nc(C)c3c2c1F [Example 120, 4-(6,9-difluoro-1-methyl-8-{[2-(methyloxy)ethyl]oxy}-3H-pyrazolo[3,4-c]isoquinolin-5-yl)phenol]"
7,≤ 99,"COCCOc1cc2c(cc1C)c(-c1ccc(O)c(Cl)c1)nc1[nH]nc(C)c12 [Example 131, 2-chloro-4-(1,7-dimethyl-8-{[2-(methyloxy)ethyl]oxy}-3H-pyrazolo[3,4-c]isoquinolin-5-yl)phenol]"
8,≤ 99,"COc1ccc2c(-c3ccc(O)c(Cl)c3)nc3[nH]nc(C)c3c2c1OC [Example 69, 2-chloro-4-[1-methyl-8,9-bis(methyloxy)-3H-pyrazolo[3,4-c]isoquinolin-5-yl]phenol]"
9,100 to 999,"COc1cc2c(cc1OCCN1CCOCC1)c(-c1ccc(O)cc1)nc1[nH]nc(C)c12 [Example 39, 4-{1-methyl-8-(methyloxy)-7-[(2-morpholin-4-ylethyl)oxy]-3H-pyrazolo[3,4-c]isoquinolin-5-yl}phenol]"
10,≤ 99,"COCCOc1ccc2c(-c3ccc(O)cc3)nc3[nH]nc(C)c3c2c1OCCOC [Example 97, 4-(1-methyl-8,9-bis{[2-(methyloxy)ethyl]oxy}-3H-pyrazolo[3,4-c]isoquinolin-5-yl)phenol]"
11,≤ 99,"Cc1n[nH]c2nc(-c3ccc(O)c(Br)c3)c3ccccc3c12 [Example 100, 2-bromo-4-(1-methyl-3H-pyrazolo[3,4-c]isoquinolin-5-yl)phenol]"
12,≤ 99,"COCCOc1c(OC)ccc2c(-c3ccc(O)c(Br)c3)nc3[nH]nc(C)c3c12 [Example 113, 2-bromo-4-(1-methyl-8-(methyloxy)-9-{[2-(methyloxy)ethyl]oxy}-3H-pyrazolo[3,4-c]isoquinolin-5-yl)phenol]"
13,≤ 99,"CCN(CC)CCOc1cc(F)c2c(-c3ccc(O)c(Cl)c3)nc3[nH]nc(C)c3c2c1OC [Example 219, 2-chloro-4-[8-{[2-(diethylamino)ethyl]oxy}-6-fluoro-1-methyl-9-(methyloxy)-3H-pyrazolo[3,4-c]isoquinolin-5-yl]phenol]"
14,≤ 99,"CCN1CCN(CCOc2cc3c(c(-c4ccc(O)c(Cl)c4)nc4[nH]nc(C)c43)c(F)c2OC)CC1 [Example 177, 2-chloro-4-[8-{[2-(4-ethylpiperazin-1-yl)ethyl]oxy}-6-fluoro-1-methyl-7-(methyloxy)-3H-pyrazolo[3,4-c]isoquinolin-5-yl]phenol]"
15,100 to 999,"COc1ccc2c(-c3ccc(O)c(Cl)c3)nc3[nH]nc(C)c3c2c1OCCN1CCOCC1 [Example 81, 2-chloro-4-{1-methyl-8-(methyloxy)-9-[(2-morpholin-4-ylethyl)oxy]-3H-pyrazolo[3,4-c]isoquinolin-5-yl}phenol]"
16,≤ 99,"COc1cc2c(-c3ccc(O)cc3F)nc3[nH]nc(C)c3c2cc1OC [Example 114, 3-fluoro-4-[1-methyl-7,8-bis(methyloxy)-3H-pyrazolo[3,4-c]isoquinolin-5-yl]phenol]"
17,≤ 99,"COc1ccc2c(-c3ccc(O)cc3)nc3[nH]nc(C)c3c2c1C [Example 78, 4-[1,9-dimethyl-8-(methyloxy)-3H-pyrazolo[3,4-c]isoquinolin-5-yl]phenol]"
18,≤ 99,"COc1cc2c(-c3ccc(O)cc3)nc3[nH]nc(C)c3c2cc1OCC1CCNCC1 [Example 54, 4-{1-methyl-7-(methyloxy)-8-[(piperidin-4-ylmethyl)oxy]-3H-pyrazolo[3,4-c]isoquinolin-5-yl}phenol]"
